Reference: publication PMC6467995, “Phosphoregulation of the oncogenic protein regulator of cytokinesis 1 (PRC1) by the atypical CDK16/CCNY complex” (Experimental & Molecular Medicine, 2019)

Tests used:
Assay type in all cases: biochemical
[1] = target: T1, CDK16 (WT-GST-CDK16) (Homo sapiens, UniProt Q00536); assay: in vitro kinase assay with [γ-32P]-ATP, dose response
T1 construct: N-terminal GST fusion, full-length, purified from E. coli; with CCNY

[2] = target: T2, CDK16 (analog-sensitive, AS-GST-CDK16) (Homo sapiens, UniProt Q00536, F240G); assay: as above
T2 construct: N-terminal GST fusion, full-length, purified from E. coli; with CCNY
T2 sequence (Q00536 whole entry F240G, the tested form may be a part): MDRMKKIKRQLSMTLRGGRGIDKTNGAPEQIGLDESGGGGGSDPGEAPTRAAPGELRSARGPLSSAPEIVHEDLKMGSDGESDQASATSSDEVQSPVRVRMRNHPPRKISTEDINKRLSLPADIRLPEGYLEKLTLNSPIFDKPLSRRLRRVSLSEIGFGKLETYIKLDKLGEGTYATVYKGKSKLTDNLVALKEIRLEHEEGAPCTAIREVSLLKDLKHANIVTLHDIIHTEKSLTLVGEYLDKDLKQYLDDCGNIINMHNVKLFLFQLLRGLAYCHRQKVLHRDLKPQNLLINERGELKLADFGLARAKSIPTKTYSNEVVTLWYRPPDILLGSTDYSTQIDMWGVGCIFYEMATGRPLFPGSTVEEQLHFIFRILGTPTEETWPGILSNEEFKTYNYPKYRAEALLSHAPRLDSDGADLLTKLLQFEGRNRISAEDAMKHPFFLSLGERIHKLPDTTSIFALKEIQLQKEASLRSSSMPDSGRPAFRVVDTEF
T2 sequence (Q8ND76 2-341 partner): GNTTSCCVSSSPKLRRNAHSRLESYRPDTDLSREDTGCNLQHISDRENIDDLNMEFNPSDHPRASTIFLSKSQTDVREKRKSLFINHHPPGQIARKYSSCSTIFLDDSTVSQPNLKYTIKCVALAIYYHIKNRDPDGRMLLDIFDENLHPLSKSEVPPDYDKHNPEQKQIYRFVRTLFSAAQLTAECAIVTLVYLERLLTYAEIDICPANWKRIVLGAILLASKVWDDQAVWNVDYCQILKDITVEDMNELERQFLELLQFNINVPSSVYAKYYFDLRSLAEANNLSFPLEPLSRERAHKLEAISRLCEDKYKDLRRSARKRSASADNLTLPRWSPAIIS

[3] = target: T1, CDK16 (WT-GST-CDK16); assay: in vitro kinase assay, thiophosphate transfer to CCNY

T1 sequence (Q00536 whole entry, the tested form may be a part): as the sequence (Q00536 whole entry F240G, the tested form may be a part) above, with G240F counted along it
T1 sequence (Q8ND76 2-341 partner): as the sequence (Q8ND76 2-341 partner) above

Row | Compound | IC50 [1] [µM] | IC50 [2] [µM] | in vitro kinase assay, thiophosphate transfer to CCNY [3]
1 | Cc1cccc(Cc2nn(C(C)(C)C)c3ncnc(N)c23)c1 [3MBPP1, 1-(tert-butyl)-3-(3-methylbenzyl)-1H-pyrazolo[3,4-d]pyrimidin-4-amine] | 4.4 | 1.23 | –
2 | Nc1ncnc2c1ncn2[C@@H]1O[C@H](CO[P@](=O)(O)O[P@](=O)(O)O[P@@](=O)(O)S)[C@@H](O)[C@H]1O [ATPγS] | – | – | WT-CDK16 used ATPγS to phosphorylate GST-CCNY, it could not use the N^6-modified bulky forms
